Experimental data published in patent US5744121A (priority 1996, dated 1998).
Read-outs that look alike come from different tables or passages of the source. Values belong to the compound of their own block, whether it stands above or below them.

What was measured:
5-HT1A receptor = assay: Blocking studies: regional brain uptake ratios in rats; assay type: in vivo; conditions: pretreated rats, 30 min post iv injection of tracer
Method: In order to further characterize the in vivo brain uptake of 1a in rats, blocking studies were carried out to determine changes of the ratios of regional brain uptake. […] Ratios for each region were calculated based on the % dose/gram of each region divided by the same in CB. […] (HP: hippocampus; CB: cerebellum; HY: hypothalamus; CX: cortex; ST: striatum).

[1] = tested on: 5-HT1A receptor (rat hippocampal membranes); conditions: cited from earlier work
[2] = target: T1, 5-HT1A receptor (rat hippocampal homogenates) (Rattus norvegicus, UniProt P19327); assay: Inhibition of [^125 I]-p-MPP binding to rat hippocampal homogenates
T1 construct: in rat hippocampal membrane preparations; from tissue; host or cells: rat hippocampus (membrane preparations / tissue homogenates)
T1 sequence (P19327 1-422): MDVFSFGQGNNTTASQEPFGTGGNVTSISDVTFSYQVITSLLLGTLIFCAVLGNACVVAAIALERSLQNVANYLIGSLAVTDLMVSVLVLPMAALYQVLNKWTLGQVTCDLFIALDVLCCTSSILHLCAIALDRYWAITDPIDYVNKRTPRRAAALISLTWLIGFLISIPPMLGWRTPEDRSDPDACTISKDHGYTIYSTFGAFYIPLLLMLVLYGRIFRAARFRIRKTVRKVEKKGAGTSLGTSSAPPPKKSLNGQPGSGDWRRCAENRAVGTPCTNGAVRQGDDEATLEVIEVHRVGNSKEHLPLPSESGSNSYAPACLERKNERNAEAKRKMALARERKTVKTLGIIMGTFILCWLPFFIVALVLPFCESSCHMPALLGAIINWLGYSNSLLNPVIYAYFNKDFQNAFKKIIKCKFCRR

[3] = target: T1, 5-HT1A receptor (rat hippocampal homogenates); assay: Inhibition of [^125 I]-8-OH-PIPAT binding to rat hippocampal homogenates; conditions: ligand [^125 I]-8-OH-PIPAT
Excerpt: The 5-HT1A binding affinity of p-, m-, o- MPPI, p-fluoro- and p-nitro-MPP derivatives (1a-f) in rat hippocampal membrane preparations with [^123 ]

[4] = Stability of the radiolabelled product on storage; assay type: physicochemical; conditions: -20° C., at least four weeks, HPLC; 40320 min
[5] = Regional brain distribution in rats after iv injection; assay type: in vivo, Male Sprague-Dawley rats; conditions: rat; for tissue uptake at 0.05 h: 3 min; for tissue uptake at 2 h: 120 min
Method: While the rats were under ether anesthesia, 0.2 mL of a saline solution containing [^123 I]1a and 1b (8-10 μCi) was injected directly into the femoral vein, and rats were sacrificed at various time points postinjection by cardiac excision under ether anesthesia. The organs of interest were removed and weighed and the radioactivity was counted with a Packard garnma automatic counter (Model 5000). The percentage dose per organ was calculated by a comparison of the tissue counts to suitably diluted aliquots of the injected material. Total activities of blood and muscle were calculated under the assumption that they were 7% and 40% of the total body weight, respectively.
By dissecting, weighing and counting samples from different brain regions (cortex, striatum, hippocampus, hypothalamus and cerebellum), the percentage dose/gram of the sample was calculated by comparing the sample counts with the count of the diluted initial dose.

[6] = Biodistribution in rats after iv injection; assay type: in vivo, Male Sprague-Dawley rats; conditions: average of 3 rats ± SD
Method: Male Sprague-Dawley rats (225-300 g), allowed free access to food and water, were used for an in vivo biodistribution study. While the rats were under ether anesthesia, 0.2 mL of a saline solution containing [^123 I]1a and 1b (8-10 μCi) was injected directly into the femoral vein, and rats were sacrificed at various time points postinjection by cardiac excision under ether anesthesia. The organs of interest were removed and weighed and the radioactivity was counted with a Packard […] automatic counter (Model 5000). The percentage dose per organ was calculated by a comparison of the tissue counts to suitably diluted aliquots of the injected material.

[7] = target: T2, 5-HT1A receptor (rat hippocampus tissue homogenates) (Rattus norvegicus, UniProt P19327); assay: Saturation binding of [^125 I]p-MPPI to rat hippocampus tissue homogenates
T2 construct: in rat hippocampal membrane preparations; from tissue; host or cells: rat hippocampus (membrane preparations / tissue homogenates)
T2 sequence (P19327 1-422): T1 sequence (P19327 1-422)

[8] = ligand [^125 I]-p-MPP, rat hippocampal homogenates, read-out: Ki
[9] = cerebellum, iv, rats (Table IV), read-out: Regional distribution, cerebellum
[10] = cortex, iv, rats (Table IV), read-out: Regional distribution, cortex
[11] = hippocampus, iv, rats (Table IV), read-out: Regional distribution, hippocampus
[12] = hypothalamus, iv, rats (Table IV), read-out: Regional distribution, hypothalamus
[13] = striatum, iv, rats (Table IV), read-out: Regional distribution, striatum

Compound: CCCN(CCC)C1CCc2cccc(O)c2C1 (racemic) [(± 8-OH-DPAT), 8-hydroxy-2-(N,N-di-n-propyl)aminotetralin, reference compound]
- specific uptake of [^123 I] or [^125 I]1a in the hippocampus after pretreatment (5-HT1A receptor): mark decrease

Compound: COc1ccccc1N1CCN(C[C@@H](C(=O)NC(C)(C)C)c2ccccc2)CC1 [(5)-WAY 100135, N-tert-butyl-3-(4-(-2-methoxyphenyl)piperazin-1-yl)-2-phenylpropionamide]
- selectivity ([1]; 5-HT1A receptor): selective antagonist at both somatodendritic and postsynaptic receptor
- IC50 ([1]; rat hippocampal membranes): 15 nM

Compound: COc1ccccc1N1CCN(CCN(C(=O)c2cccc(I)c2)c2ccccn2)CC1 [Compound 1b, 4-(2'-methoxy)phenyl-1-[2"-(N-2"-pyridinyl)-m-iodobenzamido]ethyl piperazine]
- Ki [2, 8]: 2.46 ± 0.14 nM
- Ki [3]: 1.7 ± 0.1 nM
- purity on storage [4]: > 95%
- tissue uptake at 1 h ([5]; hippocampus, 60 minutes after iv injection, ^123 I labeled, read-out: Uptake in hippocampal tissue): 0.013 %ID/g
- Brain uptake ([6]; 2 min): 0.76 % dose/organ

- Ki [3]: 3.3 ± 0.8 nM
Compound: COc1ccccc1N1CCN(CCN(C(=O)c2ccc(F)cc2)c2ccccn2)CC1 [Compound 1d]

- Ki [3]: 6.08 ± 0.8 nM
Compound: COc1ccccc1N1CCN(CCN(C(=O)c2ccc(I)cc2)c2ncccn2)CC1 [Compound 1g, 4(2'-methoxy)phenyl-1-[2'-(N-2"-pyrimidinyl)-p-iodobenzamido] ethy piperazine]

Compound: COc1cccc(OC)c1OCCNCC1COc2ccccc2O1 (stereo not shown) [WB 4101]
- Ki [2, 8]: 5 ± 0.5 nM

- tissue uptake at 2 min [5, 9]: 0.47 ± 0.01 %ID/g
- tissue uptake at 0.05 h [5, 9]: 0.039 ± 0.003 %ID/g
- tissue uptake at 1 h ([5]; cerebellum, 60 min, iv, rats (Table IV), read-out: Regional distribution, cerebellum): 0.014 ± 0.004 %ID/g
- tissue uptake at 2 h [5, 9]: 0.008 ± 0.0004 %ID/g
- tissue uptake at 2 min [5, 10]: 0.5 ± 0.03 %ID/g
- tissue uptake at 0.05 h [5, 10]: 0.043 ± 0.002 %ID/g
- tissue uptake at 1 h ([5]; cortex, 60 min, iv, rats (Table IV), read-out: Regional distribution, cortex): 0.015 ± 0.005 %ID/g
- tissue uptake at 2 h [5, 10]: 0.008 ± 0.0008 %ID/g
- tissue uptake at 2 min [5, 11]: 0.54 ± 0.03 %ID/g
- tissue uptake at 0.05 h [5, 11]: 0.051 ± 0.005 %ID/g
- tissue uptake at 1 h ([5]; hippocampus, 60 min, iv, rats (Table IV), read-out: Regional distribution, hippocampus): 0.013 ± 0.004 %ID/g
- tissue uptake at 2 h [5, 11]: 0.006 ± 0.001 %ID/g
- tissue uptake at 2 min [5, 12]: 0.5 ± 0.04 %ID/g
- tissue uptake at 0.05 h [5, 12]: 0.042 ± 0.003 %ID/g
- tissue uptake at 1 h ([5]; hypothalamus, 60 min, iv, rats (Table IV), read-out: Regional distribution, hypothalamus): 0.015 ± 0.005 %ID/g
- tissue uptake at 2 h [5, 12]: 0.01 ± 0.002 %ID/g
- tissue uptake at 2 min [5, 13]: 0.51 ± 0.003 %ID/g
- tissue uptake at 0.05 h [5, 13]: 0.042 ± 0.004 %ID/g
- tissue uptake at 1 h ([5]; striatum, 60 min, iv, rats (Table IV), read-out: Regional distribution, striatum): 0.012 ± 0.003 %ID/g
- tissue uptake at 2 h [5, 13]: 0.006 ± 0.0008 %ID/g
- Blood uptake ([6]; 2 min): 5.06 ± 0.32 % dose/organ
- Brain uptake ([6]; 2 min): 0.76 ± 0.05 % dose/organ
- Heart uptake ([6]; 2 min): 0.77 ± 0.08 % dose/organ
- Kidney uptake ([6]; 2 min): 3.67 ± 0.22 % dose/organ
- Liver uptake ([6]; 2 min): 25.72 ± 3.29 % dose/organ
- Lung uptake ([6]; 2 min): 1.87 ± 0.08 % dose/organ
- Muscle uptake ([6]; 2 min): 14.98 ± 1.16 % dose/organ
- Skin uptake ([6]; 2 min): 10.16 ± 3.32 % dose/organ
- Spleen uptake ([6]; 2 min): 0.68 ± 0.12 % dose/organ
- Thyroid uptake ([6]; 2 min): 0.07 ± 0.02 % dose/organ
- Blood uptake ([6]; 30 min): 2.27 ± 0.24 % dose/organ
- Brain uptake ([6]; 30 min): 0.07 ± 0.004 % dose/organ
- Heart uptake ([6]; 30 min): 0.11 ± 0.008 % dose/organ
- Kidney uptake ([6]; 30 min): 1.18 ± 0.11 % dose/organ
- Liver uptake ([6]; 30 min): 8.04 ± 0.63 % dose/organ
- Lung uptake ([6]; 30 min): 0.31 ± 0.004 % dose/organ
- Muscle uptake ([6]; 30 min): 10.13 ± 4.90 % dose/organ
- Skin uptake ([6]; 30 min): 13.71 ± 0.52 % dose/organ
- Spleen uptake ([6]; 30 min): 0.09 ± 0.01 % dose/organ
- Thyroid uptake ([6]; 30 min): 0.06 ± 0.02 % dose/organ
- Blood uptake ([6]; 60 min): 1.21 ± 0.08 % dose/organ
- Brain uptake ([6]; 60 min): 0.02 ± 0.006 % dose/organ
- Heart uptake ([6]; 60 min): 0.05 ± 0.005 % dose/organ
- Kidney uptake ([6]; 60 min): 0.54 ± 0.007 % dose/organ
- Liver uptake ([6]; 60 min): 4.58 ± 0.30 % dose/organ
- Lung uptake ([6]; 60 min): 0.13 ± 0.02 % dose/organ
- Muscle uptake ([6]; 60 min): 4.75 ± 1.76 % dose/organ
- Skin uptake ([6]; 60 min): 5.85 ± 1.99 % dose/organ
- Spleen uptake ([6]; 60 min): 0.04 ± 0.006 % dose/organ
- Thyroid uptake ([6]; 60 min): 0.05 ± 0.02 % dose/organ
- Blood uptake ([6]; 120 min): 1.08 ± 0.13 % dose/organ
- Brain uptake ([6]; 120 min): 0.016 ± 0.0005 % dose/organ
- Heart uptake ([6]; 120 min): 0.03 ± 0.003 % dose/organ
- Kidney uptake ([6]; 120 min): 0.36 ± 0.008 % dose/organ
- Liver uptake ([6]; 120 min): 4.13 ± 0.44 % dose/organ
- Lung uptake ([6]; 120 min): 0.10 ± 0.004 % dose/organ
- Muscle uptake ([6]; 120 min): 5.56 ± 3.54 % dose/organ
- Skin uptake ([6]; 120 min): 3.66 ± 0.68 % dose/organ
- Spleen uptake ([6]; 120 min): 0.029 ± 0.002 % dose/organ
- Thyroid uptake ([6]; 120 min): 0.11 ± 0.07 % dose/organ
Compound: COc1ccccc1N1CCN(CCN(C(=O)c2cccc([123I])c2)c2ccccn2)CC1 [[^123 I] 1b]

Compound: COc1ccccc1N1CCN(CCN(C(=O)c2ccc([125I])cc2)c2ccccn2)CC1 [[^125 I]-MPPI]
- Bmax ([7]; 37° C., 15 min, 50 mM Tris-HCl pH 7.4, 2 mM MgCl2, 10 μM 5-HT for nonspecific binding): 264 fmol/mg of protein
- Kd ([7]; 37° C., 15 min, 50 mM Tris-HCl pH 7.4, 2 mM MgCl2, 10 μM 5-HT for nonspecific binding, read-out: Kd (FIG. 1)): 0.36 nM
- Kd ([7]; rat hippocampal homogenates, Kung, Unpublished data, read-out: Kd (Table I footnote)): 0.3 nM

Compound: O=C(c1ccc(F)cc1)C1CCN(CCn2c(=O)[nH]c3ccccc3c2=O)CC1 [hetanserin]
- Ki [2]: 1970 ± 98 nM

Compound: O=C(CCCN1CCC2(CC1)C(=O)NCN2c1ccccc1)c1ccc(F)cc1 [spiperone]
- Ki [2, 8]: 12.2 ± 2.2 nM
